Experimental data: US20050203119A1, “Dihydropyridine compounds for treating or preventing metabolic disorders” (priority 2003, published 2005)

Legend:
[1] = tested on: NIDDM male mice (C57BLKS/J-m+/+Lepr db); assay: Glucose reduction in db/db mouse model, oral once daily for 7 days (Example 111); assay type: in vivo; conditions: for Serum Glucose % Pre-Treatment Baseline: 90 min post-dosing
Method: Non-insulin dependent diabetic mellitus (NIDDM) male mice (C57BLKS/J-m+/+Lepr db) weighing 60±5 g (12 weeks of age) provided by the Institute for Animal Reproduction (IAR, Japan) were used. […] The animals were housed in Individually Ventilated Cages Racks (IVC Racks, 36 Mini Isolator systems) throughout the experiment. Each APEC cage was autoclave sterilized and contained 4 mice and then maintained in a hygienic environment under controlled temperature (22-24° C.) and humidity (60-70%) with 12-hour light/dark cycles. The animals were given sterilized lab Chow and sterilized distilled water ad libitum.
Sterilized distilled water, ELISA Insulin Assay Kit (SPI bio, France), glucose (Merck), Glucose-HA assay kit (Wako, Japan), methylcellulose (Sigma), and troglitazone (BioMOL).
Compound 1 was suspended in 0.5% methylcellulose. Compound 1 at 100, 50 and 30 mg/kg as well as vehicle were administered to NIDDM male mice weighing 60±5 g (11-12 weeks of age), orally once daily for 7 consecutive days starting immediately after the first blood sampling (pre-treatment on day 1). Blood sampling was repeated at 90 minutes post-dosing on day 3 and day 7. The dosing volume was 10 ml/kg. Serum glucose level in the pre- and post-treatment periods were determined by enzymatic (Mutaratase-GOD) method. Post-treatment serum glucose value expressed in percentage of respective pre-treatment values were calculated and unpaired Student's t test was then applied for comparison between compound treated and vehicle control groups. Differences were considered significant at P<0.05. In addition, the liver weight and body weight were recorded to determine the ratio of liver to body weight.

[2] = tested on: C57BLKS/J db/db male mice; assay: Glucose reduction, Compound 1 in combination with rosiglitazone, db/db mice (Example 116, FIG. 2); assay type: in vivo, mouse; conditions: Compound 1 alone, 50 mg/kg
[3] = tested on: obese diabetic mice (C57BL/6 ob/ob); assay: Glucose reduction in ob/ob mouse model (Example 113); assay type: in vivo; conditions: 3.5 hours after administration
Method: Genetically mutated obese diabetic mice (C57BL/6 ob/ob) were purchased from the Jackson Laboratory (Bar Harbor, Me.). Eight weeks old male animals were employed in this study. After acclimation, mice were randomized for equivalent mean blood glucose on day 0 with eight mice each group, and received either vehicle or Compound 1 in 0.5% methylcellulose (ps400) by oral gavage once daily for 8 consecutive days. Plasma glucose was monitored 3.5 hours after administration of test compound on day 3 and 8.

[4] = tested on: C57BLKS/J db/db male mice; assay: Glucose, insulin and triglyceride reduction in db/db mouse model, 10 days (Example 115); assay type: in vivo; conditions: orally once daily for 10 days
Method: Compound 1 was evaluated for its effect on plasma glucose, triglyceride and insulin in C57BLKS/J db/db male mice.
Compound 1 or vehicle was administered orally once daily for 10 consecutive days. Animals were divided into either vehicle or treatment groups (n=8 per group), and blood glucose, serum triglyceride and insulin were tested at the end of assay by Ani Lytic Inc (Baltimore, Md.).

Male SD rats = conditions: rat, in vivo
Method: Male SD rats weighing 350-420 g were anesthetized with 2-3% isoflurane. The femoral artery and vein were catheterized and connected to a mean arterial blood pressure (MAP) and heart rate (HR) monitor and a continuous intravenous infusion pump. Under anesthesia, MAP and HR were recorded 10-20 minutes prior to and during the continuous intravenous infusion of test compounds for 60-70 minutes. The infusion rate, 0.14-0.16 ml/kg/minute, was determined on the basis of vehicle tolerance. The infusion doses, 1.0-1.25 mg/kg/minute, were selected, depending upon the solubility of the compound and effects on MAP and HR of the positive control compounds at the lethal dose. The maximal effective dose or lethal dose of test compounds were determined accordingly.

Structure (SMILES): CCOC(=O)C1=C(COCCN)NC2=C(C(=O)CC(C)(C)C2)C1c1ccccc1Cl (centres unmarked) [Compound 1, 2-(2-amino-ethoxymethyl)-4-(2-chloro-phenyl)-7,7-dimethyl-5-oxo-1,4,5,6,7,8-Hexahydro-quinoline-3-carboxylic acid ethyl ester]
- Serum Glucose % Pre-Treatment Baseline ([1]; Day 3, 30 mg/kg orally once daily): 96.7 ± 2.2 %
- Serum Glucose % Pre-Treatment Baseline ([1]; Day 3, 50 mg/kg orally once daily): 86.5 ± 3.5 %
- Serum Glucose % Pre-Treatment Baseline ([1]; Day 3, 100 mg/kg orally once daily): 85.6 ± 2.4 %
- Serum Glucose % Pre-Treatment Baseline ([1]; Day 7, 30 mg/kg orally once daily): 91.6 ± 3.7%
- Serum Glucose % Pre-Treatment Baseline ([1]; Day 7, 50 mg/kg orally once daily): 82.9 ± 4.4 %
- Serum Glucose % Pre-Treatment Baseline ([1]; Day 7, 100 mg/kg orally once daily): 80.9 ± 3.3 %
- liver weight relative to body weight ([1]; any treatment group (30, 50, 100 mg/kg, 7 days) vs vehicle control): No significant difference
- blood glucose level, monotherapy [2]: reduced glucose levels
- percent normalized reduction of serum glucose vs vehicle ([3]; day 3, 50 mg/kg oral gavage once daily): 30%
- percent normalized reduction of serum glucose vs vehicle ([3]; day 8, 50 mg/kg oral gavage once daily): 22.3%
- % Reduction (relative to vehicle), Glucose [4]: 14%
- % Reduction (relative to vehicle), Insulin [4]: 19%
- % Reduction (relative to vehicle), Triglyceride [4]: 17%
- Glucose ([4]; end of assay): 327.50 mg/dL
- Insulin ([4]; end of assay): 11.32 ng/mL
- Triglyceride ([4]; end of assay): 336.13 mg/dL
- Lethal Dose (Male SD rats): >70 mg/kg
